Data taken from US12194013B2 (SICHUAN JIUZHANG BIOLOGICAL SCIENCE AND TECHNOLOGY CO., LTD., priority 2018, dated 2025).
Marks after values point to notes of the source that are not given here.

Assays:
[1] = test system: human skin squamous cell carcinoma A431 cells; assay: Detecting apoptosis by flow cytometry (Annexin V-FITC/PI); format: cell-based; details: 72 h
Description: (§1) A431 cell lines were seeded in IMDM medium, containing 10% fetal bovine serum, 100 U·ml^−1 penicillin, and 100 μg·ml^−1 streptomycin, and then cultured in 37° C., 5% CO2 incubator. Cells were passaged one generation at 48-72 h, and the cells in the logarithmic growth phase were collected for the experiment.
The cells of each group treated with different concentrations of test substance for 72 h were collected and made into single cell suspension. The living cells were labeled with Annexin V-FITC and PI. After mixing, the cells were incubated in dark for 15 min at room temperature, and then 1× binding buffer was added and mixed, before the apoptotic cells were detected by flow cytometry and analyzed by Multicyc AV software.

[2] = test system: human skin squamous cell carcinoma A431 cells; assay: Inhibition of cell proliferation (MTT method); format: cell-based; details: 72 h
Description: as §1
The cells in logarithmic growth phase were inoculated on 96 well plate and further cultured for 24 hours, then divided into experimental groups and blank control group. […] The blank control group was added with the same volume of IMDM culture medium without test substance. Six multiple wells were set for each concentration. After 72 hours, the newly prepared MTT solution was added. After further culturing for 4 h, DMSO solution was added and shook, so that the crystals were fully dissolved. The absorbance value (A570 nm) of each well was measured on the microplate reader.

[3] = test system: head and neck squamous cell carcinoma SCCVII cell lines; assay: Transplanted tumor of head and neck squamous cell carcinoma SCCVII cell lines in mice; format: in vivo, mouse; details: 30 mg·kg^−1 intraperitoneally once a day; for Tumor volume / Tumor weight / Tumor inhibition rate: C3H/HeJ mice, SCCVII; for Tumor weight: at end of experiment; for Tumor inhibition rate: from average tumor weight vs negative group
Description: When the cells grew vigorously, they were digested with 0.25% trypsin, washed with phosphate buffer, and prepared as cell suspension at 3×10^6 cells/ml for use.
0.1 ml cell suspension was subcutaneously injected into the armpit of the left forelimb of mice. They were randomly divided into groups, 10 mice for one group, including test drug group 1, test drug group 2, test drug group 3, test drug group 4, test drug group 5, test drug group 6, test drug group 7, and negative group (N.S.), respectively. The drug was given on the second day after inoculation. The test drug group was intraperitoneally injected at a dose of 30 mg·kg^−1, once a day, and the administration volume was 1.0 ml; in the negative group, the same volume of normal saline was intraperitoneally injected, once a day.
The tumor volume (v=0.52×the long diameter of transplanted tumor L×the shortest diameter of transplanted tumor W^2) was measured on the 5th day after inoculation, and the mice were weighed every three days. When the tumor volume of the negative group was about 1.0 cm^3, the experiment was stopped, and the mice were killed by cervical dislocation and weighed.

In the case of `O=C(/C=C/c1ccc(O)c(O)c1)O[C@@H]1C[C@](O)(C(=O)O)C[C@@H](O)[C@H]1O` [Chlorogenic acid], the “Apoptosis rate of each experimental group” value (“Apoptosis rate” below) ([1]; 1 μg/ml) is reported as 0.57 ± 0.04%, the “Apoptosis rate” value ([1]; 2 μg/ml) is reported as 0.57 ± 0.05% and the “Apoptosis rate” value ([1]; 4 μg/ml) is reported as 0.61 ± 0.06%. The “Apoptosis rate” value ([1]; 8 μg/ml) was 0.71 ± 0.11%, the “Apoptosis rate” value ([1]; 16 μg/ml) was 1.99 ± 0.57% and the “Apoptosis rate” value ([1]; 32 μg/ml) was 4.56 ± 1.08 %. The “Apoptosis rate” value ([1]; 64 μg/ml) was 4.73 ± 1.22 %, the “Apoptosis rate” value ([1]; 128 μg/ml) was 4.87 ± 0.74 % and the inhibition at 1 µg/mL ([2]; Homo sapiens, A-431, A431 cells, 1 μg/ml, read-out: The inhibition rate of each experimental group) was 1.12 ± 0.47%. It also gave an inhibition at 2 µg/mL ([2]; Homo sapiens, A-431, A431 cells, 2 μg/ml, read-out: The inhibition rate of each experimental group) of 1.38 ± 0.53%, an inhibition at 4 µg/mL ([2]; Homo sapiens, A-431, A431 cells, 4 μg/ml, read-out: The inhibition rate of each experimental group) of 5.63 ± 2.29% and an inhibition at 8 µg/mL ([2]; Homo sapiens, A-431, A431 cells, 8 μg/ml, read-out: The inhibition rate of each experimental group) of 11 ± 4.71%. The inhibition at 16 µg/mL ([2]; Homo sapiens, A-431, A431 cells, 16 μg/ml, read-out: The inhibition rate of each experimental group) was 18.6 ± 4.82%, the inhibition at 32 µg/mL ([2]; Homo sapiens, A-431, A431 cells, 32 μg/ml, read-out: The inhibition rate of each experimental group) was 24.5 ± 9.69% and the inhibition at 64 µg/mL ([2]; Homo sapiens, A-431, A431 cells, 64 μg/ml, read-out: The inhibition rate of each experimental group) was 31.4 ± 7.35%. For the same compound, the inhibition at 128 µg/mL ([2]; Homo sapiens, A-431, A431 cells, 128 μg/ml, read-out: The inhibition rate of each experimental group) was 36.3 ± 10.8%, the “inhibitory effect on the tumors in mice transplanted with SCCVII cell lines, compared with the negative group (in words)” value [3] was “significant differences” and the Tumor volume ([3]; 5 d after inoculation) was 0.124 ± 0.083 cm^3. The Tumor volume ([3]; 8 d after inoculation) was 0.222 ± 0.079 cm^3, the Tumor volume ([3]; 10 d after inoculation) was 0.347 ± 0.102 cm^3 and the Tumor volume ([3]; 13 d after inoculation) was 0.436 ± 0.172* cm^3. For the same compound, the Tumor volume ([3]; 15 d after inoculation) was 0.483 ± 0.136* cm^3, the Tumor volume ([3]; 18 d after inoculation) was 0.545 ± 0.224* cm^3 and the Tumor weight [3] was 1.43 ± 0.074 g. The Tumor inhibition rate [3] was 41.15%.

`O=C(/C=C/c1ccc(O)cc1)O[C@@H]1C[C@](O)(C(=O)O)C[C@@H](O)[C@H]1O` [Coumaroylquinic acid] was tested, and the “Apoptosis rate” value ([1]; 1 μg/ml) was 0.53 ± 0.03%, the “Apoptosis rate” value ([1]; 2 μg/ml) was 0.55 ± 0.05% and the “Apoptosis rate” value ([1]; 4 μg/ml) was 0.56 ± 0.04%. For the same compound, the “Apoptosis rate” value ([1]; 8 μg/ml) was 0.64 ± 0.13%, the “Apoptosis rate” value ([1]; 16 μg/ml) was 0.69 ± 0.41% and the “Apoptosis rate” value ([1]; 32 μg/ml) was 1.37 ± 0.36%. For the same compound, the “Apoptosis rate” value ([1]; 64 μg/ml) was 2.26 ± 0.69%, the “Apoptosis rate” value ([1]; 128 μg/ml) was 3.07 ± 1.23% and the “inhibitory effect on human skin squamous cell carcinoma A431 (in words)” value ([2]; 1-128 μg/ml) was “not obvious”. The “The inhibition rate of each experimental group” value (“The inhibition rate” below) ([2]; A431 cells, 1 μg/ml) was 1.24 ± 0.81%, the “The inhibition rate” value ([2]; A431 cells, 2 μg/ml) was 1.28 ± 0.69% and the “The inhibition rate” value ([2]; A431 cells, 4 μg/ml) was 1.33 ± 0.42%. The “The inhibition rate” value ([2]; A431 cells, 8 μg/ml) was 2.41 ± 0.58%, the “The inhibition rate” value ([2]; A431 cells, 16 μg/ml) was 2.62 ± 0.86% and the “The inhibition rate” value ([2]; A431 cells, 32 μg/ml) was 5.77 ± 0.92%. The “The inhibition rate” value ([2]; A431 cells, 64 μg/ml) was 6.83 ± 1.02%, the “The inhibition rate” value ([2]; A431 cells, 128 μg/ml) was 8.11 ± 0.63% and the “inhibitory effect on the tumors in mice transplanted with SCCVII cell lines, compared with the negative group (in words)” value [3] was “not obvious”. The Tumor volume ([3]; 5 d after inoculation) was 0.124 ± 0.047 cm^3, the Tumor volume ([3]; 8 d after inoculation) was 0.258 ± 0.121 cm^3 and the Tumor volume ([3]; 10 d after inoculation) was 0.369 ± 0.114 cm^3. The Tumor volume ([3]; 13 d after inoculation) was 0.604 ± 0.225* cm^3, the Tumor volume ([3]; 15 d after inoculation) was 0.653 ± 0.111* cm^3 and the Tumor volume ([3]; 18 d after inoculation) was 0.811 ± 0.108* cm^3. For the same compound, the Tumor volume ([3]; 22 d after inoculation) was 0.954 ± 0.203* cm^3, the Tumor weight [3] was 2.11 ± 0.129^ g and the Tumor inhibition rate [3] was 13.17%.
